Experiments:
KAI3 (IL-2 2.5 ng/mL) [1] = test: percent inhibition of viability; higher = more inhibition; details: 72 h
KHYG-1 (IL-2 2.5 ng/mL) [2] = test: as above; details: 72 h
DERL-7 (IL-2 2.5 ng/mL) [3] = test: as above; details: 72 h
[4] = system: normal primary NK cells, pool 1 (3 donors) (IL-2 2.5 ng/mL); test: as above; details: 72 h
NK-92 (IL-2 2.5 ng/mL) [5] = test: as above; details: 72 h
NKL (IL-2 2.5 ng/mL) [6] = test: as above; details: 72 h
YT (IL-2 2.5 ng/mL) [7] = test: as above; details: 72 h
SNK-6 (IL-2 2.5 ng/mL) [8] = test: as above; details: 72 h
[9] = system: normal primary NK cells, pool 1 (3 donors), resting (IL-2 0 ng/mL); test: as above; details: 72 h
NK-YS (IL-2 2.5 ng/mL) [10] = test: as above; details: 72 h
KAI3 (IL-2 2.5 ng/mL) [11] = test: drug sensitivity score (DSS) (DSS units); higher = more sensitive; extreme values may be limits of the assay; details: 72 h
KHYG-1 (IL-2 2.5 ng/mL) [12] = test: as above; details: 72 h
DERL-7 (IL-2 2.5 ng/mL) [13] = test: as above; details: 72 h
[14] = system: normal primary NK cells, pool 1 (3 donors) (IL-2 2.5 ng/mL); test: as above; details: 72 h
NK-92 (IL-2 2.5 ng/mL) [15] = test: as above; details: 72 h
NKL (IL-2 2.5 ng/mL) [16] = test: as above; details: 72 h
YT (IL-2 2.5 ng/mL) [17] = test: as above; details: 72 h
SNK-6 (IL-2 2.5 ng/mL) [18] = test: as above; details: 72 h
[19] = system: normal primary NK cells, pool 1 (3 donors), resting (IL-2 0 ng/mL); test: as above; details: 72 h
NK-YS (IL-2 2.5 ng/mL) [20] = test: as above; details: 72 h
[21] = system: normal NK cells expanded with K562-aAPC; test: as above; details: 72 h; IL-2 2.5 ng/mL
Protocol: (§1)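 Drug sensitivity and resistance testing on K562-aAPC-expanded normal NK cells: 5 concentrations (10-fold steps over a 10,000-fold range), 72 h at 37 °C, viability by CellTiter-Glo normalised to DMSO and benzethonium chloride controls; DSS from the fitted curve.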

IMC-1 (IL-2 20 ng/mL) [22] = test: percent inhibition of viability; higher = more inhibition; details: 72 h
[23] = system: normal primary NK cells, pool 3 (3 donors) (IL-2 2.5 ng/mL); test: as above; details: 72 h
[24] = system: normal primary NK cells, pool 2 (3 donors) (IL-2 2.5 ng/mL); test: as above; details: 72 h
IMC-1 (IL-2 20 ng/mL) [25] = test: drug sensitivity score (DSS) (DSS units); higher = more sensitive; extreme values may be limits of the assay; details: 72 h
[26] = system: normal primary NK cells, pool 3 (3 donors) (IL-2 2.5 ng/mL); test: as above; details: 72 h
[27] = system: normal primary NK cells, pool 2 (3 donors) (IL-2 2.5 ng/mL); test: as above; details: 72 h
[28] = system: normal NK cells expanded with K562-aAPC; test: percent inhibition of viability; higher = more inhibition; details: 72 h, IL-2 2.5 ng/mL
Protocol: as §1

Cc1cnc(Nc2ccc(OCCN3CCCC3)cc2)nc1Nc1cccc(S(=O)(=O)NC(C)(C)C)c1 (max concentration tested 10000 nM)
percent inhibition of viability [%]
Details	DERL-7 (IL-2 2.5 ng/mL) [3]	KAI3 (IL-2 2.5 ng/mL) [1]	KHYG-1 (IL-2 2.5 ng/mL) [2]	NK-92 (IL-2 2.5 ng/mL) [5]	NK-YS (IL-2 2.5 ng/mL) [10]	NKL (IL-2 2.5 ng/mL) [6]	SNK-6 (IL-2 2.5 ng/mL) [8]	YT (IL-2 2.5 ng/mL) [7]	[4]	[9]
1 nM	2.35	-2.12	-4.97	-22	-4.69	-6.46	-5	-4.96	2.15	-0.59
10 nM	0.3	8.65	-1.52	-8.95	1.18	3.43	-10.1	-1.05	0.15	16
100 nM	26.8	26.5	7.04	-15.3	10.9	50.6	-13.7	6.19	24.1	14.1
1000 nM	84.8	90.3	99.4	33	68.9	83.5	58.4	51.3	83	51.8
10000 nM	101	108	108	106	108	109	101	107	99.8	96.5

Details	drug sensitivity score
DERL-7 (IL-2 2.5 ng/mL) [13]	18.8
KAI3 (IL-2 2.5 ng/mL) [11]	19.8
KHYG-1 (IL-2 2.5 ng/mL) [12]	19
NK-92 (IL-2 2.5 ng/mL) [15]	10.2
NK-YS (IL-2 2.5 ng/mL) [20]	14.6
NKL (IL-2 2.5 ng/mL) [16]	22.6
SNK-6 (IL-2 2.5 ng/mL) [18]	12.4
YT (IL-2 2.5 ng/mL) [17]	11.8
[14]	18.2
[19]	12.3

Cc1sc2c(c1C)C(c1ccc(Cl)cc1)=N[C@@H](CC(=O)OC(C)(C)C)c1nnc(C)n1-2 [(+)JQ1] (max concentration tested 10000 nM)
percent inhibition of viability [%]
Details	DERL-7 (IL-2 2.5 ng/mL) [3]	KAI3 (IL-2 2.5 ng/mL) [1]	KHYG-1 (IL-2 2.5 ng/mL) [2]	NK-92 (IL-2 2.5 ng/mL) [5]	NK-YS (IL-2 2.5 ng/mL) [10]	NKL (IL-2 2.5 ng/mL) [6]	SNK-6 (IL-2 2.5 ng/mL) [8]	YT (IL-2 2.5 ng/mL) [7]	[4]	[9]
1 nM	3.63	-7.52	-9.07	-5.26	-10.6	-9.69	-15.8	1.34	1.42	-3.74
10 nM	11.6	-10.2	-3.7	-16.7	-2.12	-1.54	-1.34	-1.16	1.32	-13
100 nM	54.6	3.52	24.7	-31.8	19.8	29.4	12.2	8.16	9.32	-3.42
1000 nM	96.1	47.9	89.8	22.2	62.4	69	71.4	56.7	56.9	34
10000 nM	98.5	53.6	92.7	35.5	73.2	60.9	74.2	59.4	84.1	74.8

Details	drug sensitivity score
DERL-7 (IL-2 2.5 ng/mL) [13]	24.3
KAI3 (IL-2 2.5 ng/mL) [11]	9.24
KHYG-1 (IL-2 2.5 ng/mL) [12]	19.9
NK-92 (IL-2 2.5 ng/mL) [15]	4.26
NK-YS (IL-2 2.5 ng/mL) [20]	13.9
NKL (IL-2 2.5 ng/mL) [16]	16.6
SNK-6 (IL-2 2.5 ng/mL) [18]	15
YT (IL-2 2.5 ng/mL) [17]	11.7
[14]	12.1
[19]	8.55

O=C(O)C1(C(=O)O)CCC1.[NH2-].[NH2-].[Pt+2] [Carboplatin] (max concentration tested 100000 nM)
Details	drug sensitivity score
IMC-1 (IL-2 20 ng/mL) [25]	12.8
[21]	8.66
[26]	5.79
[27]	5.27

percent inhibition of viability [%]
Details	10 nM	100 nM	1000 nM	10000 nM	100000 nM
IMC-1 (IL-2 20 ng/mL) [22]	-6.21	-0.67	1.27	61.7	100
[23]	-8.77	-1.51	10.8	18.1	64.7
[24]	1.54	-0.94	13	16.1	60.8
[28]	-8.39	-5.27	0.62	19.3	100

C[C@]12CC[C@@H]3c4ccc(OC(=O)N(CCCl)CCCl)cc4CC[C@H]3[C@@H]1CC[C@@H]2O [Estramustine] (max concentration tested 10000 nM)
Details	drug sensitivity score
IMC-1 (IL-2 20 ng/mL) [25]	0
[21]	0
[26]	0
[27]	0

percent inhibition of viability [%]
Details	1 nM	10 nM	100 nM	1000 nM	10000 nM
IMC-1 (IL-2 20 ng/mL) [22]	-0.43	-1.35	-3.43	-6.09	-6.87
[23]	-8.4	-4.19	-7.49	-10.1	-9.53
[24]	10	-2.77	-6.62	-4.76	-8.48
[28]	-5.93	-3.58	-7.28	-7.29	-6.53

Cc1cnc(Nc2ccc(OCCN3CCCC3)cc2)nc1Nc1cccc(S(=O)(=O)NC(C)(C)C)c1 [Fedratinib] (max concentration tested 10000 nM)
Details	drug sensitivity score
IMC-1 (IL-2 20 ng/mL) [25]	12.1
[21]	15.3
[26]	14.9
[27]	15.3

percent inhibition of viability [%]
Details	1 nM	10 nM	100 nM	1000 nM	10000 nM
IMC-1 (IL-2 20 ng/mL) [22]	-6.81	-6.37	-28.8	55	101
[23]	-3.74	-2.87	15.8	68.8	100
[24]	-1.22	-4.41	13.2	72.5	100
[28]	-1.65	-2.82	11.2	73.8	101

Reference: the supplement of paper PMC5908809
